One test concerns clonal CTLs. The test can be described thus: recognition of peptide-pulsed T2 cells by clonal CTLs, 51Cr release. The settings on record: T2 cells pulsed with varying concentrations of peptide. The class given is cell-based, human. Here is the method: Varying concentrations of peptide were used to pulse T2 cells. […] The same ^51Cr release assay described supra was used. Prior to testing the CTLs, these were assayed to determine if they each expressed a single T cell receptor.

For test [1], the system named is HLA-A2 restricted NY-ESO-1 specific CTLs (CTL NW38-IVS-1). Put plainly: 51Cr release cytotoxicity assay, peptide-pulsed T2 cells with CTL NW38-IVS-1. The test is classed as cell-based, human. Particulars: 10 ug/ml peptide, effector/target ratio 90:1, four hours.
Description: Samples of T2 cells were labelled with 100 uCi of Na(^51Cr)O4, using standard methods, and were then washed three times, followed by incubation with 10 ug/ml peptide and 2.5 ug/ml of β2-microglobulin. Incubation was for one hour, at room temperature. Then responder cells (100 ul of a suspension of CTL NW38-IVS-1) were added, at an effector/target ratio of 90:1, and incubated for four hours in a water saturated atmosphere, with 5% CO2, at 37° C. Then, plates were centrifuged at 200×g for five minutes, 100 ul of supernatant was removed, and radioactivity was measured. The percentage of ^51Cr release was determined in accordance with known strategies.
The target in the next test is HLA-A*0201 molecules (Homo sapiens, UniProt P04439, D140Y/D185E/D98H/E176V/E277Q/G131W/G231S/I119V/I121R/I166T/I218V/L300P/L318F/N151K/N90K/P208A/P217A/Q86G/Q94H/R138H/R169H/T345S). The test can be described thus: functional competition binding assay (inhibition of lysis of SEQ ID NO: 4 pulsed T2 cells by CTL clone LAU 132/2).
For test [2], the system named is ESO1 specific CTL clone ESO5. The test can be described thus: recognition by specific CTLs, 51Cr release from peptide-pulsed T2 cells. The class given is cell-based, human. Particulars: for EC50: T2 targets, CTL clone ESO5, lymphocyte:target ratio 30:1, 4 hours, read-out: Peptide ([nM] 50%), concentration giving 50% maximal activity; for Relative antigenic activity: [nM] 50% of SEQ ID NO: 2 divided by [nM] 50% of test peptide.
Description: As indicated, supra, the peptides described herein were tested for recognition by specific CTLs. In these experiments, target T2 cells were labelled with ^51Cr for 1 hour, at 37° C., and then washed two times. Sample (1000 labelled cells in 50 μl) were then incubated with varying concentrations of peptide, for 15 minutes. Effector cells (50 μl) were then added. These effector cells are ESO1 specific CTL clone ESO5. The lymphocyte: target ratio was 30:1. Chromium release was measured after 4 hours of incubation at 37° C., by testing 100 μl supernatant samples.
Specific percent lysis was calculated as: [formula]

A further test deals with CTLs. Put plainly: 51Cr release assay in presence of reducing agent (DTT or TCEP). The class given is cell-based, human. The settings on record: 200 μM DTT or TCEP.
Test [3] deals with NY-ESO-1 specific T cells (tumor infiltrating lymphocytes). The test can be described thus: IFN-γ ELISPOT of short term tumor infiltrating lymphocyte culture with T2 cells plus peptide. The class given is cell-based, human. The settings on record: 1 μM peptide, 2×10^3 cultured cells/well, 5×10^4 T2 cells/well; control cultures 19 spots. From the text: Samples of lymph nodes or metastatic lesions were taken from a patient who presented slowly progressive melanoma with recurrent metastases, all of which were localized to the same paravertebral region. […] Further, the patient's serum indicated high titer of anti-NY-ESO-1 antibodies.
The surgically resected lymph nodes or metastatic lesions were finely minced in sterile, RPMI 1640 medium that had been supplemented with 10% fetal calf serum. Suspensions of cells were placed in 24-well tissue culture plates, in 2 ml of Iscove's Dulbecco medium, supplemented with 0.24 mM Asn, 0.55 mM Arg, 1.5 mM Gln, 10% pooled human A+ serum, 100 U/ml IL-2, and 10 ng/ml of IL-7. The cells were cultured for 2-3 weeks, prior to being assayed via IFN-γ ELISPOT, in accordance with Czerkinsky, et al, J. Immunol. Meth 110:29 ([…]), incorporated by reference. In brief, 2×10^3 cells/well of the short term culture referred to supra were combined with either 5×10^4 T2 cells/well, or the same number of T2 cells, plus 1 μM of one of SEQ ID NOS: 1-3. Each culture was run in duplicate.

Test [4] relates to SEQ ID NO: 2 specific CTLs. The test can be described thus: killing specificity of tetramer-sorted CTLs, 51Cr release. The settings on record: 1 μM peptide, effector/target ratios 1:1 and 0.3:1; unpulsed T2 not killed. The class given is cell-based, human. As to the method:
These tetramers were then used to stain a sample of cells taken from a patient who had been diagnosed previously as having a NY-ESO-1 positive melanoma. See Dunbar, et al., J. Immunol 162(12):6959-62(1999) and Ser. No. 09/049,850, filed Mar. 27, 1998, incorporated by reference. In brief, however, peripheral blood lymphocyte (“PBL”) samples were stained with tetramers for 15 minutes at 37° C., followed by washing in PBS/1% FCS at 37° C., followed by incubation with a labelled, anti-CD8 antibody for 30 minutes, on ice. The cells were then washed three times, in ice cold PBS/1% FCS, and were then analyzed via flow cytometry.
The CTLs described supra were then tested for killing specificity. […] Killing was determined using the ^51Cr release assay described supra.

Test [5] concerns NA8-MEL (A2+, NY-ESO-1-) cells. Put plainly: 51Cr release assay, CTL ESO5 on A2+ melanoma cell lines with or without peptide. The class given is cell-based, human. The settings on record: exogenously added peptide; not lysed when absent. As to the method:
Cell lines NA8-MEL (A2^+, NY-ESO-1^−), SK-MEL37 (A2^+, NY-ESO-1^+), and Me 275 (A2^+, NY-ESO-1^+) were tested, in ^51Cr release assays, as described supra.

Test [6] concerns NY-ESO-1 157-165 specific CTLs. Put plainly: CTL assays of modified peptides. The test is classed as cell-based, human. Here is the method: All of these peptides were tested in CTL assays of the type described supra.

This note sets out measurements from patent US6689742B1, “NY-ESO-1 peptide derivatives, and uses thereof” (Chancellors, Masters and Scholars of the University of …, priority 2000, dated 2004).

Description for HLA-A*0201 molecules: The functional competition binding assay employed is that taught by Valmori, et al., J. Immunol 161:6956-6962 (1998), incorporated by reference, but elaborated upon herein.
(SEQ ID NO: 4) is known to bind to HLA-A*0201 molecules, and to provoke lysis by an HLA-A*0201 restricted CTL clone, known as LAU 132/2. […] T2 cells were labelled with ^51Cr, in the presence of anti class I monoclonal antibody W6/32. […] Then, a suboptimal dose (1 nM) of SEQ ID NO: 4 (50 μl) were added, together with 50 μl of the T cells (5000 cells/well). ^51Cr release was measured after 4 hours incubation at 37° C. […] In order to facilitate the comparison, relative competitive activity of each peptide was calculated as [nM] […] 50% value determined for the test peptides.

Take “157-164: a peptide consisting of the first 8 amino acids of SEQ ID NO: 11 (SLLMWITQ; listed as Homo sapiens)”: the “recognition by all T cells (clonal CTLs)” value in the test on clonal CTLs is “failed to recognize”.

As for “QLSLLMWIT [SEQ ID NO: 3, natural NY-ESO-1 peptide]”, the “stimulation of HLA-A2 restricted NY-ESO-1 specific CTLs (51Cr release)” value (“stimulation” below) in test [1] was “three best stimulators”. Also, the “fold less efficient competitor than SEQ ID NO: 4” value at HLA-A*0201 molecules amounted to 100 fold. In test [2], the EC50 is 50 nM and the Relative antigenic activity stood at 0.012. The “recognition by all T cells (clonal CTLs)” value in the test on clonal CTLs is “recognized”.

Regarding “SLLMWITQC [SEQ ID NO: 2, natural NY-ESO-1 peptide, parental peptide]”, the “increase of antigenicity in the presence of reducing agent” value with CTLs amounted to 10 fold. In addition, the “mean number of spots (IFN-γ ELISPOT)” value in test [3] is recorded as 424 spots. For the same substance, in test [1], the “stimulation” value was “three best stimulators”. The “killing of peptide-pulsed T2 cells by CTLs” value in test [4] is on record as “killed”. The “recognition by CTL, in words” value in test [2] (CTL clone ESO5, compared with parental peptide SEQ ID NO: 2) is listed as “optimally recognized antigenic peptide”. Besides, the EC50 in test [2] is 0.6 nM. Besides, the “lysis of NA8-MEL by CTL ESO5 when peptide added” value in test [5] was “lysed”. The “recognition by all T cells (clonal CTLs)” value with clonal CTLs is on record as “recognized”.

Regarding “SLLMWITQCF (listed as Homo sapiens) [SEQ ID NO: 11]”, the “recognition by all T cells (clonal CTLs)” value in the test on clonal CTLs was “recognized”.

For “SLLMWITQCFL [SEQ ID NO: 1, natural NY-ESO-1 peptide]”, the “mean number of spots (IFN-γ ELISPOT)” value in [3] was 396 spots. The “stimulation” value in test [1] was “three best stimulators”. In test [2], the EC50 turned out to be 50 nM and the Relative antigenic activity turned out to be 0.012. Moreover, the “recognition by all T cells (clonal CTLs)” value with clonal CTLs is “failed to recognize”.

With “SLLMWITQCI (Mutagen 10 Synthesized. At position 10 of SEQ ID NO 11, Phe is replaced by Ile) [SEQ ID NO: 14]”, the “recognition compared to SEQ ID NO: 2, in words” value in test [6] is “recognized more efficiently”.

On to “SLLMWITQI (Mutagen 9 Synthesized. At position 9, of SEQ ID NO2,Cys is replaced by Ile) [SEQ ID NO: 12]”, for which the “increase of recognition by NY-ESO-1 157-165 specific CTLs as compared to SEQ ID NO: 2” value in test [6] is on record as “about 1000 fold”.

As for SLLMWITQL [SEQ ID NO: 7], the “increase of recognition by NY-ESO-1 157-165 specific CTLs as compared to SEQ ID NO: 2” value in test [6] is given as “about 1000 fold”. Moreover, in test [2], the EC50 came to 0.01 nM.
